# Test results published in publication PMC11167047 (Cell Death Discovery, 2024).
# Like-named read-outs stand apart in the source and are kept apart here.
# Legend:
# Ramos = assay: AlamarBlue viability assay; type: cell-based, human; conditions: cytotoxicity, 24 h, read-out: IC50 (Ramos)
# Experimental: The resazurin reduction assay, which is also known as AlamarBlue® assay, was used for the determination of cell viability in all cytotoxicity determinations shown in the present work, as previously described [22]. Briefly, cells were seeded at a specific density depending on the incubation time (24 h: 1 × 10^6 cells/ml) in a 96-well plate and incubated with increasing compound concentrations (0.01–30 µM). After the specified treatment time, resazurin (Sigma, #R7017) was added to a final concentration of 40 µM. […] The viability of control cells was set to 100% and all other values were normalized to the control condition, the dose-response curves were then fitted with Prism v7.01 (GraphPad software, La Jolla, CA, USA). The reduction of resazurin to resorufin is proportional to aerobic respiration; therefore, it is used as a measure for the cell viability and cytotoxicity of a tested compound.
# [1] = test system: retinoblastoma (RB) protein phosphorylation; assay: immunopurification of RB from Ramos cells; type: cell-based, human
# Experimental: For immunopurification (IP) the Dynabeads^TM Protein G Immunoprecipitation kit from Invitrogen (#10007D) was used. For IP, 2 × 10^6 cells were seeded in a 24-well plate and treated with the appropriate compound. After incubation, cells were lysed with NP-40 containing lysis buffer (Hepes-NaOH 50 mM pH 7.5, NaCl 150 mM, NP-40 1% v/v, MgCl2 2.5 mM, 1x Protease inhibitor (cOmplete^TM, EDTA-free Protease Inhibitor Cocktail), 1x Phosphatase Inhibitor (PhosSTOP^TM)) for 30 min. A protein content of 50 µg per IP was used, the protein concentration was measured by Bradford assay (Bio-Rad #5000006) with the photometer. Protein G is conjugated to the magnetic Dynabeads^TM. In the first step, the Dynabeads^TM were incubated for 10 min with the specific RB antibody (Abcam #ab181616; rabbit), which was used in a dilution of 1:80. The antibody bound to the conjugated protein G and a bead-antibody complex was formed. By placing the tube on a magnet, the beads were easily separated from the solution and the supernatant could be removed. The bead-antibody complex was washed once with Ab binding and washing buffer. In the second step, the cell lysate was incubated for 10 min with the bead-antibody complex to allow the RB protein from the lysate to bind to the antibody. The bead complex was washed several times with washing buffer by placing the tube on the magnet and removing the supernatant. […]
smiles,measurement,setting,value
COc1ccnc2[nH]cc(-c3cc(N)nc(N)c3)c12 [meriolin 16],IC50,Ramos; as given in text,0.02 to 0.03 µM
same,IC50,Ramos; listed as Meriolin 16,0.02 µM
same,IC50,Ramos,0.03 µM
same,phosphorylation of RB at p-Ser612 and p-Thr821 (immunopurified RB),"[1]; 1 µM, 4 h",less phosphorylated
same,phosphorylation of RB at p-Ser612 and p-Thr821 (immunopurified RB),[1]; 24 h,completely abrogated
